# According to PMC4876372 (Scientific Reports, 2016):
# Legend:
# [1] = biological target: T1, His-tagged human recombinant ITPA protein (Homo sapiens, UniProt Q9BY32); assay: ITPA enzyme assay; type: biochemical; conditions: at 100 μM
# T1 construct: His; purchased ProSpec
# Procedure: Likewise, the enzymatic activities of ITPA and DCTPP1 were measured using a PPiLight Inorganic Pyrophosphate Assay kit. For the ITPA enzyme assay, we used ITPA assay buffer (100 mM Tris-acetate, 50 mM Mg(OAc)2, 0.005% Tween-20, and 2 mM DTT, pH 7.5), His-tagged human recombinant ITPA protein (5 nM; ProSpec), and ITP (25 μM). For the DCTPP1 enzyme assay, we used DCTPP1 assay buffer (100 mM Tris-acetate, 100 mM NaCl, 10 mM Mg(OAc)2, 0.005% Tween-20, and 2 mM DTT, pH 7.5), His-tagged human recombinant DCTPP1 protein (50 nM; ATGen), and deoxycytidine triphosphate (dCTP; 50 μM).
# To exclude false positive compounds that inhibit PPi detection, the effects of test compounds on 10 μM Na4P2O7-induced luciferase activity were examined.
# [2] = Cell death assay (WST-8) in HeLa cells; type: cell-based, human; conditions: human, HeLa cells (cervical cancer); 72 h, WST-8; read-out: cytotoxicity IC50 against HeLa cells
# Procedure: Human cancer cell lines HeLa (cervical cancer), MIA PaCa-2 (pancreatic cancer), A431 (epidermoid carcinoma), and human embryonic kidney derived cell line HEK293T were cultured in Dulbecco’s Modified Eagle’s Medium (DMEM; Invitrogen) containing 10% fetal bovine serum (FBS), penicillin G (50 units/mL) and streptomycin (50 µg/mL). Human cancer cell lines Panc-1 (pancreatic cancer) and Jurkat (T cell lymphoma) were cultured in RPMI (Gibco) containing 10% FBS, penicillin G (50 units/mL) and streptomycin (50 µg/mL). Human osteosarcoma cell line MG-63, mouse embryonic fibroblast NIH3T3 cells and its transformant NIH3T3/KRAS cells1 were cultured in DMEM (Sigma-Aldrich) containing 10% calf serum, glutamine (0.3 g/L), penicillin G (50 units/mL), and streptomycin (50 µg/mL). All cell lines were incubated at 37 °C in a humidified atmosphere containing 5% CO2.
# The cells were seeded in 96-well plates, cultured overnight, and treated with test compounds for the indicated time. Subsequently, cell viability was measured by the WST-8 assay, using Cell Count Reagent SF (Nacalai Tesque) according to the manufacturer ’s instructions, with the measurement of absorbance set at 450 nm on the ARVO SX 1420 Multilabel Counter (Wallac). […]
# porcine tubulin = biological target: T2, porcine tubulin (Sus scrofa, UniProt P02550+P02554); assay: In vitro tubulin polymerization assay; type: biochemical; conditions: even at 300 μM
# T2 construct: purchased Cytoskeleton
# Procedure: In vitro tubulin polymerization assay was performed using a tubulin polymerization assay kit (Cytoskeleton) according to the manufacturer’s instructions. Briefly, lyophilized porcine tubulin was solubilized to a final concentration of 2 mg/mL in reaction buffer containing 80 mM piperazine-N,N′-bis(2-ethanesulfonic acid) (PIPES; pH 6.9), 2 mM MgCl2, 0.5 mM ethylene glycol tetraacetic acid (EGTA), 1 mM guanosine-5′-triphosphate (GTP), 10 μM fluorescent reporter, and 20% glycerol, and kept at 4 °C. Compounds (100 × DMSO stock solutions) were added to prewarmed half-area 96-well black plates. Cold tubulin solution was added to the wells. The plate contents were mixed by shaking, and fluorescence (Ex 350 nm, Em 435 nm) was read every minute for 1 h using a fluorescence microplate reader (Molecular Devices).
# [3] = biological target: T3, MTH1 in intact HeLa cells (Homo sapiens, UniProt P36639); assay: Target engagement assay (CETSA); type: cell-based; conditions: 300 μM, 1 h
# T3 construct: endogenous in cells; host or cells: HeLa
# Procedure: To analyze the interaction between small-molecule ligands and their target proteins in intact cells, a cellular thermal shift assay (CETSA) was performed as described previously with minor modifications. […] After treatment, cells were collected with trypsin and resuspended in Tris-buffered saline (TBS). The cell suspension was aliquoted into four polymerase chain reaction (PCR) tubes and heated at 45, 50, 55, or 60 °C for 5 min. Subsequently, cells were lysed by three repeated freeze-thaw cycles using liquid nitrogen. Precipitated proteins were separated from the soluble fraction by centrifugation at 17,000 × g for 20 min. Soluble proteins collected in the supernatant were subjected to sodium dodecyl sulfate polyacrylamide gel electrophoresis (SDS-PAGE) and transferred to a polyvinylidene difluoride (PVDF) membrane (Millipore) for western blot analysis. […] Santa Cruz Biotechnology) and a horseradish peroxidase–labeled secondary antibody (Vector Laboratories) in sequence. They were then visualized with Fusion Solo S (Vilber Lourmat) using a Super Signal West Pico Chemiluminescence Substrate (Pierce). After detection of MTH1 by western blot, proteins on the membrane were visualized by staining with Coomassie brilliant blue (CBB).
# [4] = system: nuclear 53BP1 foci in HeLa cells; assay: 53BP1 foci immunofluorescence (DNA damage); type: cell-based, human; conditions: 24 h, only at the higher concentrations (100-300 μM)
# Procedure: For 53BP1, test compound–treated HeLa cells were fixed in 3% formalin in PBS containing 0.1% Triton X-100 for 15 min and permeabilized in 0.5% Triton X-100 for 5 min. After blocking with 10% FBS and 0.1% Triton X-100 in PBS for 1 h, cells were incubated sequentially with a primary antibody against 53BP1 (1:600, sc-22760; Santa Cruz Biotechnology) in blocking solution at 37 °C for 1 h and with Alexa Fluor 568-conjugated secondary antibody (1:400, Life Technologies) under the same condition.
# After a quick rinse in PBS, DNA was counterstained with 0.5 µg/mL Hoechst 33342 (Sigma-Aldrich) in PBS at room temperature for 10 min. Images were analyzed on a fluorescence microscope (Delta Vision). […]
# HeLa cells = assay: Cell cycle analysis (propidium iodide flow cytometry); type: cell-based, human; conditions: 24 h, HeLa cells (Ctrl 0.9%)
# Procedure: The HeLa cells were seeded in 12-well plates and treated with test compounds for the indicated time. Cells were harvested, washed with PBS, and incubated in propidium iodide (PI) solution containing 50 µg/mL propidium iodide, 0.1% sodium citrate, 0.2% Nonidet P-40, and 0.25 µg/mL RNase A (Nacalai Tesque) for 30 mi n in the dark.
# Cellular DNA content was analyzed by fluorescence-activated cell sorting using a Cytomics FC500 (Beckman Coulter). […]
# T2 sequence (P02550 whole entry): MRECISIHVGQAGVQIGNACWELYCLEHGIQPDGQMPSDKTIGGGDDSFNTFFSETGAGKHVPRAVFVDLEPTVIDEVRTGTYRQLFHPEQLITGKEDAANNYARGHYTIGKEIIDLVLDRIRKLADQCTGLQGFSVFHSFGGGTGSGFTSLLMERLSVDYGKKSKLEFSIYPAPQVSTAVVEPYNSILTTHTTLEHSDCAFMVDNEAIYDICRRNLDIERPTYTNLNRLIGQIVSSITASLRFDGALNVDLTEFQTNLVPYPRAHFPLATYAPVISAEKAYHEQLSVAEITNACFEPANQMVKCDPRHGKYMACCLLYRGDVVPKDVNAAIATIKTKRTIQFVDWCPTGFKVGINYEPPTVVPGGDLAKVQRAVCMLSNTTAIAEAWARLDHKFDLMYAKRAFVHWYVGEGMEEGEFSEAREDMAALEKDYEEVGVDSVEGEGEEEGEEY
# T2 sequence (P02554 whole entry): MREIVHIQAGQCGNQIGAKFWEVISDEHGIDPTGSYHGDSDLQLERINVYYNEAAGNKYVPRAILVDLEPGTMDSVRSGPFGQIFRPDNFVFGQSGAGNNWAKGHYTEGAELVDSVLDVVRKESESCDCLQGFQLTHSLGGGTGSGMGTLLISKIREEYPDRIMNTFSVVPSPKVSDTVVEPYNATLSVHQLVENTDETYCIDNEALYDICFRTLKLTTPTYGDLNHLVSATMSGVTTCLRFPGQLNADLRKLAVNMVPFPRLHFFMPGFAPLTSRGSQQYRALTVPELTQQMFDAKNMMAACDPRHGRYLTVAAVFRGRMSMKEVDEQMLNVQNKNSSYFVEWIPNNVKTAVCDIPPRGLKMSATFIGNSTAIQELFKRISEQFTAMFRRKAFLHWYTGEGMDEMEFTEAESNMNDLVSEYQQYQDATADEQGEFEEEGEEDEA
SMILES,effect on enzymatic activity of ITPA [1],IC50 at 72 h [2],effect on tubulin polymerization in vitro (porcine tubulin),thermal stabilization of cellular MTH1 [3],DNA damage (nuclear 53BP1 foci formation) [4],sub-G1 cell population (HeLa cells; 100 μM),sub-G1 cell population (HeLa cells; 200 μM)
CC1(C)CC2CC(C)(CN2c2ncnc3[nH]cnc23)C1 (centres unmarked) [NPD7155],did not affect,65 µM,did not affect tubulin polymerization,considerably stabilized,increased nuclear 53BP1 foci formation,4.9%,9.0%
Nc1nc(NCCc2ccccc2)c2nc[nH]c2n1 [NPD9948],did not affect,35 µM,did not affect tubulin polymerization,considerably stabilized,increased nuclear 53BP1 foci formation,8.2%,19%
